Measurements published in a melting point compilation (Tetko et al.; mined from patent text by program, amines drawn as free bases though some values may be those of a salt).

| Compound | melting point |
| --- | --- |
| COC(=O)c1nn(C)c2ccccc12 | 78 to 79 °C |
| CC(C)(C(=O)C=Cc1ccc(Cl)cc1Cl)C1OCCO1 | 92 to 93 °C |
| CCCOc1ccc(N(C)S(=O)(=O)c2ccc(C)cc2)c([N+](=O)[O-])c1 | 93 to 94 °C |
| CCc1cc(-c2nnc3c4ccccc4c(OCc4ncn(C)n4)nn23)no1 | 236 to 238 °C |
| CC(C)(C)Cc1ccc2c(c1)C(=O)c1ccccc1C2=O | 93.8 °C |
| CSc1cccc(-c2ccccc2[N+](=O)[O-])c1 | 42 to 43 °C |
| O=C(O)c1cc(CO[N+](=O)[O-])cc(CO[N+](=O)[O-])c1 | 39 to 41 °C |
| CSc1nncc(-c2ccccc2)n1 | 99 to 100 °C |
| Cc1nnc(-c2ccc3ncn(-c4ccc(S(C)=O)cc4)c3c2)o1 (stereo not given) | 246 to 247 °C |
| NC(=O)c1ncn2c1[C@@H]1CCN1C(=O)c1sccc1-2 | > 250 °C |
| Cc1cc(-c2cc(C(F)(F)F)nc(-c3cccc(-c4cccc(S(N)(=O)=O)c4)c3)n2)ccc1C(F)(F)F | 205 °C |
| O=c1[nH]c2ccc(Cl)cc2c(=O)n1CCCN1CC=C(c2ccc(Cl)cc2)CC1 | 197 to 198 °C |
| COC(=O)c1cc(OC)c([N+](=O)[O-])cc1N | 127 to 129 °C |
| O=C(Nc1c(OCc2ccccc2)cc(Br)cc1[N+](=O)[O-])C1CC1 | 191 °C |
| N#Cc1ccc(Cn2c3cc(O)c(O)cc3c3c(Br)cc(O)c(O)c32)cc1 | > 260 °C |
| CCc1[nH]n(C2CCCC2)c2nc(-c3ccnc(C)c3)nc(=O)c1-2 | 258 to 259 °C |
| CCCN(Cc1ccc(-c2ccccc2-c2nnn[nH]2)cc1)c1ncncc1C(=O)OCC | 160 to 162 °C |
| COc1cc(OCCOC(C)C)cc2nc(-c3cc(C)nc(C)c3)[nH]c(=O)c12 | 188 to 189 °C |
| C=C1C(O)C(CO)OC1n1cc(Cl)c(N)nc1=O (stereo not given) | 168 to 170 °C |
| CCCCCCCCCCCCCCCCCCOc1cn(C)c(CNCCCO)cc1=O | 79 to 82 °C |
| CCCc1nc(C(=O)C(C)C)c(C#N)[nH]1 | 90.5 to 91 °C |
| CCOC(=O)CC(NC(=O)CNC(=O)c1csc(N=C2NCCN2)n1)c1cccnc1 (racemic) | 198 to 199 °C |

| Compound | melting point |
| --- | --- |
| NC(=O)c1nc(Cl)cc(N)c1Cl | 240 to 241 °C |
| COc1ccc(C2(CCN3CCC(O)(c4nc5ccccc5n4Cc4ccc(F)cc4)CC3)CCN(C(=O)c3ccccc3)C2)cc1OC (stereo not given) | 111 to 114 °C |
| Cc1ccc(N2Cc3ccccc3P2(=O)C(C)C)cc1 (stereo not given) | 135 to 137 °C |
| CCOC(=O)c1cn(-c2nc[nH]n2)cn1 | 220 to 222 °C |
| CCn1nc2c(N)nc3ccccc3c2c1CC(C)(C)NCCS(C)(=O)=O | 155 to 157 °C |
| CN[C@H]1CCN(c2c(-c3csc(C)n3)c(C)c(C#N)c3nc(C(=O)N(C)C)oc23)C1 | 138 to 140 °C |
| COc1cc(OC)c(NC(=O)NC2(c3ccccc3)CCCC2)c(OC)c1 | 193 to 195 °C |
| Oc1cccc(-c2cnc3cnc(-c4cccc(O)c4)nc3c2)c1 | 264 to 265 °C |
| CCOc1c([C@@H]2C[C@H]2C=O)cc(C(C)(C)C)cc1C(C)(C)C (racemic) | 123 to 126 °C |
| COc1ccccc1Cc1ccc2[nH]c3cnn(C)c3c(=O)c2c1 | 255 °C |
| CCCCCN(C(=O)c1cnc(N2CC(C)(C)NC2=O)nc1N)c1cccc(C(F)(F)F)c1 | 167 to 168 °C |
| Cc1cccc2c1nc1n2CC(c2ccccn2)S1 (stereo not given) | 96 °C |
| O=C(c1ccc(O)cc1)c1ccc2cc(C(=O)c3ccc(O)cc3)ccc2c1 | 307 °C |
| Oc1ccc(N=Nc2cccc(Cl)c2Cl)c(Cl)c1Cl | 197 to 199 °C |
| CC(=O)c1c([N+](=O)[O-])[nH]c(-c2ccncc2)c1C | 187 to 188 °C |
| CCc1cn2ccccc2c1S(=O)(=O)c1ccc(OCCCN(C)C(C)c2ccc(OC)c(OC)c2)cc1 (stereo not given) | 78 to 80 °C |
| NC(=NCC(F)(F)F)Nc1ccnc(SCCCNC=O)n1 | 165 to 166 °C |
| CC[C@H]1C(=O)C[C@@H]2C[C@H]1OO[C@@]2(/C=C/C(=O)c1ccc(Cl)cc1)CC | 127 °C |
| CN(C)C=C1C(=O)N(c2ccccc2)C(=O)N1C | 131 to 133 °C |
| Cc1nc2cc(N(C)C(=O)c3ccc(Cl)cc3Cl)ccc2n1C | 245 to 247 °C |
| Cc1c(C)c2c(c(C)c1OCc1ccc(S(C)=O)cc1)C(c1ccc(C(C)C)cc1)C(C)(C)O2 (stereo not given) | 132 to 134 °C |
| CCOC(=O)c1ccc(Oc2ccc(F)cc2)nc1 | 68 °C |

| Compound | melting point |
| --- | --- |
| CCOC(=O)C1C(N(C)C(=O)C(F)(F)F)C(=O)N1c1ccc(OC)cc1 (stereo not given) | 102 to 104 °C |
| COc1cccc2c3c(n(C)c12)SCCC3=O | 106 to 108 °C |
| CC(C)(C)C(=O)OCNc1nc(OCc2ccc(F)cc2)ncc1F | 134 to 135 °C |
| COC(=O)c1ccccc1Nc1c(Cl)cccc1Cl | 100 to 103 °C |
| CC(C)Oc1cc(-c2[nH]c3cn[nH]c(=O)c3c2Cl)ccc1OC(F)F | 248 to 262 °C |
| CON1CCC2(CC1)NC(=O)C(c1cc(Br)c(F)cc1C)=C2O | 229 to 230 °C |
| CCc1c([N+](=O)[O-])c(C(N)=O)nn1C[C@H]1CCCN1C | 111 to 116 °C |
| COC(=O)C1=C(C)Nc2ccccc2NC1c1cccc([N+](=O)[O-])c1 (stereo not given) | 124 to 126 °C |
| COc1ccc(N(C(=O)c2ccc(OC)c(F)c2)c2ccc(F)cc2)cc1 | 54 to 56 °C |
| O=C(NOCCNc1ccccc1)c1ccc(F)c(F)c1Nc1ccc(I)cc1Cl | 158 °C |
| O=C(O)CC(CC(=O)O)c1ccc(O)cc1 | 168 to 170 °C |
| NS(=O)(=O)c1cc2cnc(CO)cc2o1 | 222 to 223 °C |
| COc1ccc(CC([N+](=O)[O-])C2(CCCCc3ccc(C)cc3)OCCO2)cc1OC (stereo not given) | 89 to 91 °C |
| CON=C(c1noc(C)n1)c1cc(Cl)ccc1OCc1ccc(Cl)cc1 | 127 to 128 °C |
| CC(=O)N1CCN=C1C(O)(c1ccccc1)c1ccccn1 (stereo not given) | 150 to 153 °C |
| NS(=O)(=O)c1ccc(NC(=O)CNc2ccccc2)c(Br)c1 | 179 to 181 °C |
| FC(F)(F)c1cccc(N(c2ccccc2)c2ccc(-c3ccc(N(c4ccccc4)c4cccc(C(F)(F)F)c4)cc3)cc2)c1 | 150 °C |
| O=C1NC(=O)c2c1c(-c1ccccc1)c(-c1ccccc1)c1[nH]c3ccc(O)cc3c21 | > 300 °C |
| CC1(O)CCC2C3CCC45OC4(C)C(O)=C(C#N)CC5(C)C3CCC21C (stereo not given) | 170 to 171 °C |
| COc1ccc(-c2cccc3nc(Nc4cc(OC)c(OC)c(OC)c4)oc23)cn1 | 192 to 193 °C |
| O=C(NC(=O)c1c(F)cccc1F)Nc1ccc(SC(F)(F)C(F)Cl)cc1F (stereo not given) | 172 to 173 °C |
| COc1ccc(-n2nnnc2C(F)(F)F)c(OC)c1CO | 74 to 79 °C |

The remaining lines, values ahead:

| melting point | Compound |
| --- | --- |
| 108 to 110 °C | CC(=O)N1CCC(c2ccc3c(c2OCc2ccccc2)CCCC3)CC1 |
| 181 °C | COc1cccc(CCN2C(=O)c3c(C)c(C)c(C)c(C)c3C2(O)c2ccc(F)cc2)c1 (stereo not given) |
| 152 to 153 °C | COc1ccc(COC2CC(n3cc(C(F)(F)F)c(=O)n(C(=O)c4ccccc4)c3=O)OC2CO)cc1 (stereo not given) |
| > 300 °C | COc1ccc(-c2ccc3c(c2)CCCc2c-3nc3ccc(F)cc3c2C(=O)O)cc1 |
| 158 to 161 °C | Cn1c(C(=O)O)cc2c(OC[C@@H](O)CN3CCC(c4ccc5ccccc5c4)CC3)cccc21 |
| 243 °C | Cc1ccc(-c2cc(C(=O)C=Cc3ccc(C(=O)O)cc3)cc(C(C)(C)C)c2OCC(C)C)cc1 |
| > 285 °C | CN1CCN(c2ccnc3c(NC(=O)c4c(Cl)cccc4Cl)cc(C(F)(F)F)cc23)C1=O |
| 171 to 172 °C | COC(=O)c1c(OCc2ccccc2)ccc2c1CC[C@@H](NC(C)=O)[C@@H]2OC(C)=O (relative stereo) |
| 142 to 144 °C | O=C(O)CCC(=O)c1ccc(-c2ccc(Cl)cc2)o1 |
| 195 to 199 °C | CN1CCN(c2cc(F)cc3c(=O)cc(C(=O)Nc4ccc(N5CCN(C(=O)CCO)CC5)cc4)oc23)CC1 |
| 125 to 150 °C | Cc1cc(Nc2ccnc(Nc3ccc(S(=O)(=O)N(C)C4CCN(Cc5cnn(C)c5)CC4)cc3)n2)ccc1F |
| 108 to 112 °C | Cc1cc(Cn2nnn(-c3ccc(C(F)(F)F)cc3)c2=O)ccc1NC(=O)c1cccc(I)c1C(=O)NC(C)(C)CS(C)(=O)=O |
| 189 to 190 °C | O=C(NOCCO)c1cc(Br)c(F)c(F)c1Nc1ccc(I)cc1F |
| > 305 °C | Nc1ccc(NC(=O)Nn2cnc3ccccc3c2=O)cc1 |
| 213 to 214 °C | O=C(O)CNC(=O)Nc1ccc([N+](=O)[O-])cc1 |
| 88 to 89 °C | OC1CCN(CCCc2noc3cc(F)ccc23)CC1 |
| 301 to 304 °C | Cc1nc(N)nc(N)c1N1CCN(c2ccc(S(=O)(=O)N(C)C)cc2)CC1 |
| 138 to 139 °C | O=C(O)c1cccc(-c2cccc3oc(Cc4cccc(C(F)(F)F)c4)cc23)c1 |
| 172 °C | COc1ccc(CN(C)CCc2ccc(NC(=O)c3cccc4c(=O)c5ccccc5[nH]c34)cc2)cc1OC |
| 89.5 to 91.9 °C | CC(=O)NC[C@H]1CN(c2ccc(-n3nccc3-c3ccc(C)cc3)c(F)c2)C(=O)O1 |
| 80 to 81 °C | COC(=O)SC1C2=C(CCCC2)C(=O)N1c1ccc(Cl)cc1F (stereo not given) |
| 104 to 105 °C | Cn1cccc1CNCC1(c2cccc(C(F)(F)F)c2)CCN(C(=O)CN2CCN(c3cnccn3)CC2)CC1 |
| 163 to 165 °C | CCOc1ccc(S(=O)(=O)N2CCNCC2)cc1-c1nc2c(C)cccc2c(=O)[nH]1 |
| 145 to 150 °C | CC(=O)N1CCC(Oc2ccc([N+](=O)[O-])cc2)(c2ccccc2)CC1 |
| 92 °C | CSC[C@H](C)NC(=O)c1c(Cl)cccc1C(=O)Nc1ccc(Cn2nc(C(F)(F)F)cc2C(F)(F)F)nc1C |
| 235 to 239 °C | O=C(Nc1cccc2c(CO)ccnc12)c1c(Cl)cccc1Cl |
| 196 to 198 °C | Cc1cc(C)c(Nc2nc(C)ncc2S(=O)(=O)c2ccc(N3CCCC3)cc2)c(C)c1 |
| 179 to 180 °C | COc1ccc(Cc2nc3cccc(NCc4ncc[nH]4)c3o2)cc1OC1CCCC1 |
| 208 °C | Nc1cc2c(Nc3ccc(F)c(Cl)c3)ncnc2cc1OCC1CC1 |
